Read-outs that look alike come from different tables or passages of the source.
Assays:
[1] = biological target: Recombinant Cat D (Homo sapiens (Human), UniProt P07339); assay: In vitro enzymatic Cathepsin D (Cat D) FRET assay; assay type: biochemical; conditions: read-out: IC50 IP (μM) CatD
Procedure, shortened: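 Human Cat D expressed in CHO cells was incubated for one hour in 0.05 M citrate pH 3.5, 5 mM CHAPS, 10% DMSO final, with 20 nM quenched FRET peptide substrate. Reactions were stopped with Tris buffer raising pH to neutrality. Cleavage was read as fluorescence at excitation 500 nm, emission 580 nm.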

[2] = biological target: human recombinant BACE1 (Homo sapiens (Human), UniProt P56817); assay: In vitro enzymatic BACE1 FRET assay; assay type: biochemical; conditions: read-out: IC50 IP (μM) BACE1 enzyme
Procedure, shortened: (§1)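 Fluorescence from cleavage of a quenched peptide spanning the BACE site (50 nM) was read at 488 nm excitation, 590 nm emission. Purified enzyme (Ni-NTA) and compound reacted for one hour before a Tris stop shifted pH to neutral.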

[3] = biological target: human recombinant BACE2 (Homo sapiens (Human), UniProt Q9Y5Z0); assay: In vitro enzymatic BACE2 FRET assay; assay type: biochemical; conditions: read-out: IC50 IP (μM) BACE2 enzyme
Procedure, shortened: as §1

[4] = tested on: Aβ40 in conditioned medium of cells stably expressing Amyloid Precursor Protein (APP); assay: In vitro BACE-1 cell-based assay (Aβ40 sandwich ELISA); conditions: read-out: IC50 IP (μM) BACE1 cell
Procedure, shortened: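 Aβ40 in supernatants measured by time-resolved fluorescence sandwich ELISA, with pAb40 as capture and biotin-6E10 as detector antibody, each incubated at 4 °C.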

[5] = tested on: Aβ 40 in rat CSF; assay: In vivo inhibition of beta-secretase: Aβ40 reduction in rat CSF; conditions: after 4 h
Source text: (§2) In Vivo Inhibition of Beta-Secretase
Several animal models, including mouse, rat, dog, and monkey, may be used to screen for inhibition of beta-secretase activity in vivo following administration of a test compound sample. Animals used in this invention can be wild type, transgenic, or gene knockout animals. For example, the Tg2576 mouse model, prepared and conducted as described in Hsiao et al., 1996, Science 274, 99-102, and other non-transgenic or gene knockout animals are useful to analyze in vivo inhibition of Amyloid beta peptide (Abeta) production in the presence of inhibitory test compounds. Generally, 2 to 18 month old Tg2576 mice, gene knockout mice or non-transgenic animals are administered test compounds formulated in vehicles, such as cyclodextran, phosphate buffers, hydroxypropyl methylcellulose or other suitable vehicles. One to twenty-four hours following the administration of compound, animals are sacrificed, and brains as well as cerebrospinal fluid (CSF) and plasma are removed for analysis of A-beta levels and drug or test compound concentrations (Dovey et al., 2001, Journal of Neurochemistry, 76,173-181) Beginning at time 0, animals are administered by oral gavage, or other means of delivery such as intravenous injection, an inhibitory test compound of up to 100 mg/kg in a standard, conventional formulation, such as 2% hydroxypropyl methylcellulose, 1% Tween80. A separate group of animals receive 2% hydroxypropyl methylcellulose, 1% Tween80 alone, containing no test compound, and serve as a vehicle-control group. At the end of the test period, animals are sacrificed and brain tissues, plasma or cerebrospinal fluid are collected. […] Homogenates are centrifuged at 355,000 g, 4° C. for 30 minutes. CSF or brain supernatants are then analyzed for the presence of A-beta peptide by specific sandwich ELISA assays based on ECL (Electrochemiluminescence) technology. For example, rat Abeta40 is measured using biotinylated-4G8 (Signet) as a capture antibody and Fab40 (an in-house antibody specific to the C-terminal of Abeta40) as a detection antibody. For example, 4 hours after administration of 30 mg/kg oral dose of the test compound in 2% hydroxypropyl methylcellulose, 1% Tween80 (pH2.2) to 200 g male Sprague Dawley rats, amyloid beta peptide levels are measured for reduction by X % and Y % in cerebrospinal fluid and brain, respectively, when compared to the levels measured in the vehicle-treated or control mice.
(§3) Actual vehicles used: Oral: 2% HPMC, 1% Tween80, pH 2.2
The compounds of the invention may be shown to reduce the formation and/or deposition of amyloid beta peptide in the cerebrospinal fluid (CSF) as well as in the brain of a mouse or rat at either 3 mpk, 10 mpk or 30 mpk (mpk=mg compound per kg weight of the animal) dosing concentrations after 4 h.

[6] = tested on: Aβ 40 in rat brain; assay: In vivo inhibition of beta-secretase: Aβ40 reduction in rat brain; conditions: after 4 h
Source text: as §2
Several animal models, including mouse, rat, dog, and monkey, may be used to screen for inhibition of beta-secretase activity in vivo following administration of a test compound sample. Animals used in this invention can be wild type, transgenic, or gene knockout animals. […] One to twenty-four hours following the administration of compound, animals are sacrificed, and brains as well as cerebrospinal fluid (CSF) and plasma are removed for analysis of A-beta levels and drug or test compound concentrations (Dovey et al., 2001, Journal of Neurochemistry, 76,173-181) Beginning at time 0, animals are administered by oral gavage, or other means of delivery such as intravenous injection, an inhibitory test compound of up to 100 mg/kg in a standard, conventional formulation, such as 2% hydroxypropyl methylcellulose, 1% Tween80. A separate group of animals receive 2% hydroxypropyl methylcellulose, 1% Tween80 alone, containing no test compound, and serve as a vehicle-control group. At the end of the test period, animals are sacrificed and brain tissues, plasma or cerebrospinal fluid are collected. […] Homogenates are centrifuged at 355,000 g, 4° C. for 30 minutes. CSF or brain supernatants are then analyzed for the presence of A-beta peptide by specific sandwich ELISA assays based on ECL (Electrochemiluminescence) technology. For example, rat Abeta40 is measured using biotinylated-4G8 (Signet) as a capture antibody and Fab40 (an in-house antibody specific to the C-terminal of Abeta40) as a detection antibody.
as §3

Chain of human recombinant BACE1 (P56817 46-501): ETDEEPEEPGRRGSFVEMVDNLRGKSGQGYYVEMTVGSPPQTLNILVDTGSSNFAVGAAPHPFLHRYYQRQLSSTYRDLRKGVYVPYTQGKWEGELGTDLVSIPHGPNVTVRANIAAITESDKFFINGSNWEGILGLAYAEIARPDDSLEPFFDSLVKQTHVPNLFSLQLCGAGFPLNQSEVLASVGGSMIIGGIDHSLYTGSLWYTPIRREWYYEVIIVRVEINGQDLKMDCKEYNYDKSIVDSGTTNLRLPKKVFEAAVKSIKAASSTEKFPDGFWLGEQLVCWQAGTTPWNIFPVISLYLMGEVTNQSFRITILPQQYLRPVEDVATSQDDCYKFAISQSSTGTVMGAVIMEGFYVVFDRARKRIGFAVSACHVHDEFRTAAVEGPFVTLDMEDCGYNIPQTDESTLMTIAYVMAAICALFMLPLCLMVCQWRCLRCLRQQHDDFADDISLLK
Chain of human recombinant BACE2 (Q9Y5Z0 63-518): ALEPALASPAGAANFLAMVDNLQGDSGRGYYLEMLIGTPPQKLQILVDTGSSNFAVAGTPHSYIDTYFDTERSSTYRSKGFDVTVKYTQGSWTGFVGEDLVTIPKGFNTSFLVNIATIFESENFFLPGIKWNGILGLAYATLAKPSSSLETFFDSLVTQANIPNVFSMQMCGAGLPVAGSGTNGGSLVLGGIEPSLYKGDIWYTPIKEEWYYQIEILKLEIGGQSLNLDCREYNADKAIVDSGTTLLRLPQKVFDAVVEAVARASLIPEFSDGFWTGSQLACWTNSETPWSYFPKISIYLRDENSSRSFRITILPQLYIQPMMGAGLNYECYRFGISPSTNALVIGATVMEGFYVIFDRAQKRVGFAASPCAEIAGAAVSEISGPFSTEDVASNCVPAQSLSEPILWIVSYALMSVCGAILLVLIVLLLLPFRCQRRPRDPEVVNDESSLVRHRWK
Chain of Recombinant Cat D (P07339 65-412): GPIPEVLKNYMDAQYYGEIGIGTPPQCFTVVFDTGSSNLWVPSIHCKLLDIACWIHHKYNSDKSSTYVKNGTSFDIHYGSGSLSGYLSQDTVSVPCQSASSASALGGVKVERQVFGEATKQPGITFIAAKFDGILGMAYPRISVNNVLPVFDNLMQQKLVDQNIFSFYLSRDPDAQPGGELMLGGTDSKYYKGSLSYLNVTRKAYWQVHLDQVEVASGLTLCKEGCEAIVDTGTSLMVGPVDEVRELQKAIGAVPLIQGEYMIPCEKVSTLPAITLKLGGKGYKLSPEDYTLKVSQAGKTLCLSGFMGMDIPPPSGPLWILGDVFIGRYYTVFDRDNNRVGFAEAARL

Row | Structure (SMILES) | IC50 ([1]; Cathepsin D FRET enzyme assay) | IC50 ([2]; BACE1 FRET enzyme assay) | IC50 ([3]; BACE2 FRET enzyme assay) | IC50 ([4]; BACE1 cell-based assay) | % Aβ 40 reduction in rat CSF at 10 mpk [5] | % Aβ 40 reduction in rat brain at 10 mpk [6] | % Aβ 40 reduction in rat CSF (3 mpk) ([5]; 3 mpk) | % Aβ 40 reduction in rat brain (3 mpk) ([6]; 3 mpk) | IC50 [1] | IC50 [2] | IC50 [3] | IC50 [4]
1 | COC[C@]12C[C@H]1[C@@](C)(c1cc(Nc3ncnc4cc(Cl)cnc34)cc(F)c1F)N=C(N)S2 [Example 35, N-(3-((1S,5S,6S)-3-amino-1-(methoxymethyl)-5-methyl-2-thia-4-azabicyclo[4.1.0]hept-3-en-5-yl)-4,5-difluorophenyl)-7-chloropyrido[3,2-d]pyrimidin-4-amine] | 213 µM | 0.00386 µM | 0.00363 µM | 0.00288 µM | 63% | 50% | – | – | – | – | – | –
2 | NC1=N[C@](CF)(c2cc(Nc3nccc4cc(Cl)cnc34)ccc2F)[C@@H]2C[C@]2(CO)S1 [Example 45, ((1S,5S,6S)-3-amino-5-(5-((3-chloro-1,7-naphthyridin-8-yl)amino)-2-fluorophenyl)-5-(fluoromethyl)-2-thia-4-azabicyclo[4.1.0]hept-3-en-1-yl)methanol] | > 400 µM | 0.00299 µM | < 0.00203 µM | 0.00427 µM | 17% | 0% | – | – | – | – | – | –
3 | COC[C@]12C[C@H]1[C@@](C)(c1cc(Nc3ncnc4cc(C#N)cnc34)cc(F)c1F)N=C(N)S2 [Example 46, 4-((3-((1S,5S,6S)-3-amino-1-(methoxymethyl)-5-methyl-2-thia-4-azabicyclo[4.1.0]hept-3-en-5-yl)-4,5-difluorophenyl)amino)pyrido[3,2-d]pyrimidine-7-carbonitrile] | 252 µM | 0.00631 µM | 0.0301 µM | 0.00352 µM | 73% | 67% | – | – | – | – | – | –
4 | NC1=N[C@](CF)(c2cc(Nc3ncnc4cc(Cl)cnc34)ccc2F)[C@@H]2C[C@]2(CO)S1 [Example 49, ((1S,5S,6S)-3-amino-5-(5-((7-chloropyrido[3,2-d]pyrimidin-4-yl)amino)-2-fluorophenyl)-5-(fluoromethyl)-2-thia-4-azabicyclo[4.1.0]hept-3-en-1-yl)methanol] | 1760 µM | 0.00631 µM | 0.00749 µM | 0.0084 µM | 24% | 14% | – | – | – | – | – | –
5 | N#Cc1cnc2c(Nc3ccc(F)c([C@@]4(CF)N=C(N)S[C@H]5C[C@H]54)c3)ncnc2c1 [Example 51, 4-((3-((1S,5S,6S)-3-amino-5-(fluoromethyl)-2-thia-4-azabicyclo[4.1.0]hept-3-en-5-yl)-4-fluorophenyl)amino)pyrido[3,2-d]pyrimidine-7-carbonitrile] | 1350 µM | 0.033 µM | 0.0983 µM | 0.00344 µM | – | – | 23 (3 mpk) % | 17 (3 mpk) % | – | – | – | –
6 | C#CCOc1cnc2c(Nc3ccc(F)c([C@@]4(CF)N=C(N)S[C@@]5(CO)C[C@H]54)c3)nccc2c1 [Example 52, ((1S,5S,6S)-3-amino-5-(fluoromethyl)-5-(2-fluoro-5-((3-(2-propyn-1-yloxy)-1,7-naphthyridin-8-yl)amino)phenyl)-2-thia-4-azabicyclo[4.1.0]hept-3-en-1-yl)methanol] | > 400 µM | 0.0105 µM | 0.23 µM | 0.00455 µM | 16% | 0% | – | – | – | – | – | –
7 | C[C@]1(c2cc(Nc3nccc4cc(C#N)cnc34)cc(F)c2F)N=C(N)S[C@@]2(CO)C[C@H]21 [Example 54, 8-((3-((1S,5S,6S)-3-amino-1-(hydroxymethyl)-5-methyl-2-thia-4-azabicyclo[4.1.0]hept-3-en-5-yl)-4,5-difluorophenyl)amino)-1,7-naphthyridine-3-carbonitrile] | > 44.4 µM | 0.00139 µM | < 0.00203 µM | 0.00196 µM | 18% | 19% | – | – | – | – | – | –
8 | C#CCOc1cnc2c(Nc3cc(F)c(F)c([C@@]4(C)N=C(N)S[C@@]5(CO)C[C@H]54)c3)nccc2n1 [Example 82, ((1S,5S,6S)-3-amino-5-(2,3-difluoro-5-((2-(2-propyn-1-yloxy)pyrido[3,4-b]pyrazin-5-yl)amino)phenyl)-5-methyl-2-thia-4-azabicyclo[4.1.0]hept-3-en-1-yl)methanol] | > 133 µM | 0.00043 µM | 0.0099 µM | 0.00354 µM | 48% | 23% | – | – | – | – | – | –
9 | C#CCOc1cnc(C(=O)Nc2cc(F)c(F)c([C@@]3(CF)N=C(N)S[C@H]4C[C@H]43)c2)c(C)n1 [Example 84, N-(3-((1S,5S,6S)-3-amino-5-(fluoromethyl)-2-thia-4-azabicyclo[4.1.0]hept-3-en-5-yl)-4,5-difluorophenyl)-3-methyl-5-(2-propyn-1-yloxy)-2-pyrazinecarboxamide] | 974 µM | 0.00125 µM | 0.0228 µM | 0.0216 µM | 40% | 8% | – | – | – | – | – | –
10 | C[C@]1(c2cc(Nc3ncnc4cc(C#N)cnc34)cc(F)c2F)N=C(N)S[C@@]2(C(F)F)C[C@@H]12 [Example 95, 4-((3-((1S,5S,6S)-3-amino-1-(difluoromethyl)-5-methyl-2-thia-4-azabicyclo[4.1.0]hept-3-en-5-yl)-4,5-difluorophenyl)amino)pyrido[3,2-d]pyrimidine-7-carbonitrile] | 133 µM | 0.00426 µM | 0.00837 µM | 0.0138 µM | 69% | 60% | – | – | – | – | – | –
11 | C#CCOc1cnc(C(=O)Nc2cnc(OC)c([C@@]3(C)N=C(N)S[C@@]4(CF)C[C@H]43)c2)cn1 [Example 612, N-(5-((1S,5S,6S)-3-amino-1-(fluoromethyl)-5-methyl-2-thia-4-azabicyclo[4.1.0]hept-3-en-5-yl)-6-methoxy-3-pyridinyl)-5-(2-propyn-1-yloxy)-2-pyrazinecarboxamide] | – | – | – | – | 84% | 82% | – | – | 196 µM | 0.00115 µM | 0.0544 µM | 0.00103 µM

— patent publication US20160046618A1, “Cyclopropyl Fused Thiazin-2-Amine Compounds as Beta-Secretase Inhibitors and Methods of Use” (AMGEN INC., priority 2014, published 2016)
